# In PMC11249646, “Small-Molecule Disruptors of the Interaction between Calcium- and Integrin-Binding Protein 1 and Integrin αIIbβ3 as Novel Antiplatelet Agents” (ACS Pharmacology & Translational Science, 2024):
# pIC50: −log10 of the molar value. Where two headings read alike, the source gives them in different places.
# Columns and labels:
# [1] = test system: washed human platelets; experiment: Human platelet aggregation assay (thrombin-induced); format: cell-based; conditions: for inhibition at 10 µM: Homo sapiens, Platelet, single concentration of 10 μM (n = 3), thrombin; for Thrombin Assay 10 µM (%): platelet aggregation inhibition at 10 µM
# Description: A classical challenge in target-based drug discovery is moving from biochemical to cellular assay and the essential step of determining if the compounds of interest can perform in a cellular context. After characterization of the compounds in a series of biochemical assay formats, our next step was to assess their activity in a cellular environment. Our previous studies have shown that the interaction of the cytoplasmic domain of integrin αIIbβ3, a key regulator of platelet aggregation, with CIB1, is involved in downstream signaling in platelet activation and aggregation. We sought to determine whether our candidate compounds were inhibiting this interaction by evaluating them for platelet function in a human platelet aggregation assay. We prepared platelet-rich plasma (PRP) and washed the platelets as previously described[44] and then performed a platelet aggregation assay using the washed platelet suspensions (2 × 10^8/platelets/mL) followed by the recording of aggregation traces (see Materials and Methods Section). To induce platelet aggregation, 0.03 U/mL of thrombin, a physiological agonist of platelet activation, was used.
# Figure 6 Effect of compounds on human platelet activation. Representative platelet aggregation tracings of washed human platelet suspensions pretreated for 30 min at 37 °C with vehicle (DMSO) or compounds at indicated concentrations followed by activation with thrombin (0.03–0.1 U/mL). Panel (A): NCGC00071855. Panel (B–D): NCGC00351170. Panel (E): CD62P exposure was in the presence of NCGC00351170. Data represents mean ± SEM, n = 4 individual experiments; ns = non significant *P < 0.05, ***P < 0.001, ****P < 0.0001.
# Whole blood was drawn by venipuncture from healthy adult volunteers (of both gender and race) with informed consent. Approval was obtained from the institutional review boards of Thomas Jefferson University, according to the Declaration of Helsinki. Blood was collected in acidified citrate dextrose as an anticoagulant. Platelet-rich plasma (PRP) and washed platelets were prepared, as previously described.[44] Platelet aggregation was performed using washed platelet suspensions containing 2 × 10^8 platelets/mL using a Chrono-Log Lumi-Aggregometer (Chrono-Log), as described previously.[11] Aggregation traces were recorded by using Aggrolink software (Chrono-Log). Thrombin-induced P-selectin (CD62P) exposure was performed using Accuri C6 flowcytometer (BD Bioscience) as described previously.[11]
# Figure S9: Effect of compounds on human platelet activation. Representative platelet aggregation
# tracings of washed human platelet suspensions treated with vehicle (DMSO) or indicated
# compounds at 10 μM for 30 minutes at 37 °C followed by activation with thrombin (0.03U/mL).
# [2] = In vitro ADME: solubility; format: physicochemical; conditions: read-out: Solubility
# [3] = target: T1, CIB1 and αIIb peptide (Homo sapiens, UniProt Q99828); experiment: Intrinsic tryptophan fluorescence (ITF) assay
# T1 sequence (Q99828 1-191): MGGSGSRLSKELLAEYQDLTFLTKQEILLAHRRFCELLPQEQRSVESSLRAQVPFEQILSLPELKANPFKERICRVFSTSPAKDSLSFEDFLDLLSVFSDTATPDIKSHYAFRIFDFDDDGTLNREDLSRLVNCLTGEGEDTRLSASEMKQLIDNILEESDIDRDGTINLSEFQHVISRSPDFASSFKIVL
# [4] = target: T2, CIB1 and αIIb interaction (GST-CIB1 : F-αIIb peptide) (Homo sapiens, UniProt Q99828); experiment: FP assay, 384-well format (screen); format: binding; set-up: 384-well SCREEN Efficacy (%): concentration or dose not given beside the values; conditions: for 384-well SCREEN Confirm?: YES/NO
# T2 construct: made in house; host or cells: BL-21 plus RIL cells (E. coli)
# T2 sequence (Q99828 1-191): T1 sequence (Q99828 1-191)
# [5] = target: T3, GST-CIB1 : F-αIIb peptide (Homo sapiens, UniProt Q99828); experiment: FP assay in the presence of glutathione (GSH), thiol reactivity; format: binding; conditions: for GSH/CIB1 IC50 ratio: ratio of GSH (+) IC50 to GSH (-) IC50; for GSH Assay Result: thiol reactivity call: No change / Active
# T3 construct: made in house; host or cells: BL-21 plus RIL cells (E. coli)
# T3 sequence (Q99828 1-191): T1 sequence (Q99828 1-191)
# [6] = target: T4, GST-CIB1 : F-scrambled peptide (Homo sapiens, UniProt Q99828); experiment: FP scrambled-peptide counter screen, 384-well format; format: binding; conditions: F-scrambled peptide; for 384-well COUNTERSCREEN Confirm?: *: Curve in opposite direction; for pIC50: read-out: 384-well COUNTERSCREEN IC50
# T4 construct: made in house; host or cells: BL-21 plus RIL cells (E. coli)
# T4 sequence (Q99828 1-191): T1 sequence (Q99828 1-191)
# [7] = target: T4, GST-CIB1 : F-scrambled peptide; experiment: FP scrambled-peptide counter screen, 1536-well format; format: binding; conditions: for COUNTERSCREEN Efficacy (%) / COUNTERSCREEN Confirm? / COUNTERSCREEN Curve Class / pIC50: scrambled-peptide counterscreen; for COUNTERSCREEN Confirm?: YES/NO call; for pIC50: read-out: COUNTERSCREEN IC50
# [8] = target: T5, CIB1 and αIIb interaction (CIB1-GST : F-αIIb peptide) (Homo sapiens, UniProt Q99828); experiment: FP assay, 1536-well qHTS format (primary and confirmatory screen); format: binding; conditions: for CONFIRMATORY SCREEN Confirm?: YES/NO call; for CONFIRMATORY SCREEN Efficacy (%) / Efficacy (%): negative = inhibition
# T5 construct: made in house; host or cells: BL-21 plus RIL cells (E. coli)
# T5 sequence (Q99828 1-191): T1 sequence (Q99828 1-191)
# [9] = In vitro ADME: PAMPA permeability
# [10] = target: T6, GST-CIB1:F-αIIb interaction (Homo sapiens, UniProt Q99828); experiment: Gel-based (in-gel) binding assay; conditions: 1 μM GST-CIB1, 400 nM F-αIIb; 60 μM, 1:2, 4-points
# T6 construct: made in house; host or cells: BL-21 plus RIL cells (E. coli)
# T6 sequence (Q99828 1-191): T1 sequence (Q99828 1-191)
# [11] = F-αIIb peptide, read-out: 384-well SCREEN IC50
# [12] = FP assay in the presence of glutathione (GSH +), read-out: GSH (+) Assay IC50
# [13] = FP assay without glutathione (GSH -), read-out: GSH (-) Assay IC50
# [14] = confirmatory screen, qHTS curve class, negative sign = inhibitory curve
# [15] = confirmatory screen, read-out: CONFIRMATORY SCREEN IC50
# [16] = qHTS primary screen hits, Table S2
# [17] = qHTS primary screen hits, Table S2, read-out: IC50
# [18] = 384-well FP assay, Table 1, read-out: FP assay IC50
# [19] = qHTS primary screen hits, Table S2, negative sign = inhibitory curve, several classes where COUNT > 1
SMILES,solubility [2] [µg/mL],384-well SCREEN Efficacy (%) ([4]; F-αIIb peptide),384-well SCREEN Confirm? ([4]; F-αIIb peptide),"pIC50 [4, 11]","pIC50 [5, 12]","pIC50 [5, 13]",GSH/CIB1 IC50 ratio [5],GSH Assay Result [5],384-well COUNTERSCREEN Efficacy (%) [6] [%],384-well COUNTERSCREEN Confirm? [6],pIC50 [6],Papp [9] [×10⁻⁶ cm/s],Active in Gel Assay? [10],COUNTERSCREEN Efficacy (%) [7] [%],COUNTERSCREEN Confirm? [7],COUNTERSCREEN Curve Class ([7]; qHTS curve class),CONFIRMATORY SCREEN Confirm? ([8]; confirmatory screen),"CONFIRMATORY SCREEN Curve Class [8, 14]",CONFIRMATORY SCREEN Efficacy (%) ([8]; confirmatory screen),"pIC50 [8, 15]",other results
O=C(c1cccs1)c1no[n+]([O-])c1C(=O)c1cccs1 [NCGC00071855-04],9,76,YES,5.10,5.51,5.20,0.5,No change,50,YES,4.50,156,YES,-36,YES,-1.4,YES,-1.4,-40,5.25,Platelet Aggregation Result ([1]; 10 μM compound): Active; pIC50 [3]: 4.27; pIC50 [7]: 4.60
COc1ccc(CNC(=O)c2nc(S(=O)(=O)Cc3ccccc3)ncc2Cl)cc1.O=C(O)C(F)(F)F [NCGC00117170-03],–,56,YES,5.15,5.39,5.49,1.3,No change,17,YES,< 3.92,–,YES,-18,YES,4,YES,-1.4,-29,4.90,"ITF IC50 [3]: inactive; Efficacy (%) ([8]; qHTS FP screen hits, Table S2): -38%; Curve Class ([8]; qHTS FP screen hits, Table S2, one class per curve where COUNT > 1, negative sign = inhibitory curve): -1.2; pIC50 ([8]; qHTS FP screen hits, Table S2, read-out: IC50): 5.70"
Cc1ccccc1C(=O)c1no[n+]([O-])c1C(=O)c1ccccc1C.O=C(O)C(F)(F)F [NCGC00351166-01],2,–,–,–,–,–,–,–,–,–,–,< 1,–,-24,YES,4,YES,-1.4,-39,4.90,"inhibition at 10 µM [1]: 77%; Thrombin Assay 10 µM (%) [1]: 77%; pIC50 [4, 18]: 5.37; Efficacy (%) [8, 16]: -19%; Curve Class [8, 19]: -2.4; pIC50 [8, 17]: 4.50"

# Further lines, with some results ahead:
solubility [2] [µg/mL],384-well SCREEN Efficacy (%) ([4]; F-αIIb peptide),384-well SCREEN Confirm? ([4]; F-αIIb peptide),"pIC50 [4, 11]","pIC50 [5, 12]","pIC50 [5, 13]",GSH/CIB1 IC50 ratio [5],GSH Assay Result [5],384-well COUNTERSCREEN Efficacy (%) [6] [%],384-well COUNTERSCREEN Confirm? [6],pIC50 [6],Papp [9] [×10⁻⁶ cm/s],Active in Gel Assay? [10],SMILES,COUNTERSCREEN Efficacy (%) [7] [%],COUNTERSCREEN Confirm? [7],COUNTERSCREEN Curve Class ([7]; qHTS curve class),CONFIRMATORY SCREEN Confirm? ([8]; confirmatory screen),"CONFIRMATORY SCREEN Curve Class [8, 14]",CONFIRMATORY SCREEN Efficacy (%) ([8]; confirmatory screen),"pIC50 [8, 15]",other results
–,76,YES,5.89,6.49,6.63,1.4,No change,23,YES,< 3.92,–,YES,"Oc1ccc2ccccc2c1SSc1c(O)ccc2ccccc12 [NCGC00186047-02, IPA-3, reference compound]",-34,YES,-1.2,YES,-1.4,-74,5.55,"pIC50 [3]: 4.78; shift in potency in the presence of GSH ([5]; with vs without 10 μM reduced GSH): no shift; pIC50 [7]: 4.50; Efficacy (%) [8, 16]: -21%; Curve Class ([8]; qHTS primary screen hits, Table S2, negative sign = inhibitory curve): -1.4; pIC50 [8, 17]: 4.99"
26,–,–,–,–,–,–,–,–,–,–,2,–,O=C(c1ccccc1)c1no[n+]([O-])c1C(=O)c1ccccc1 [NCGC00351168-02],–,–,–,–,–,–,–,"inhibition at 10 µM [1]: 97%; Thrombin Assay 10 µM (%) [1]: 97%; pIC50 [4, 18]: 5.11; Efficacy (%) (counterscreen) ([7]; counterscreen): -34%; Curve Class (counterscreen) ([7]; counterscreen, qHTS curve class, negative sign = inhibitory curve): -1.4; IC50 ([7]; counterscreen, read-out: IC50 [μM] (counterscreen)): 25.1 µM; Efficacy (%) (confirmatory screen) ([8]; confirmatory screen): -54%; Confirm? (confirmatory screen) ([8]; confirmatory screen, YES/NO): YES; Curve Class (confirmatory screen) [8, 14]: -2.2; IC50 ([8]; confirmatory screen, read-out: IC50 [μM] (confirmatory screen)): 31.6 µM; Efficacy (%) [8, 16]: -49%; Curve Class [8, 19]: -1.2; pIC50 [8, 17]: 4.60"
